Data taken from ChEMBL document CHEMBL5723584 (2023).

Experiments:
[1] = target: NUAK family SNF1-like kinase 2 (Homo sapiens) (UniProt Q9H093); experiment: activity of NUAK2(h) at 1.0 µM in the Eurofins Kinase panel; settings: Compound concentration 1.0 uM
[2] = target: Mitogen-activated protein kinase kinase kinase 11 (Homo sapiens) (UniProt Q16584); experiment: activity of MLK3(h) at 1.0 µM in the Eurofins Kinase panel; settings: Compound concentration 1.0 uM
[3] = target: Casein kinase 2 (Homo sapiens) (UniProt P67870+P68400+P19784+Q8NEV1); experiment: activity of CK2(h) at 1.0 µM in the Eurofins Kinase panel; assay type: protein assay; settings: Compound concentration 1.0 uM
[4] = target: High affinity nerve growth factor receptor (Homo sapiens) (UniProt P04629); experiment: activity of TrkA(h) at 1.0 µM in the Eurofins Kinase panel; settings: Compound concentration 1.0 uM
[5] = target: Ribosomal protein S6 kinase alpha-4 (Homo sapiens) (UniProt O75676); experiment: activity of MSK2(h) at 1.0 µM in the Eurofins Kinase panel; settings: Compound concentration 1.0 uM
[6] = target: Phosphatidylinositol 3-kinase C2 domain-containing subunit gamma (Homo sapiens) (UniProt O75747); experiment: activity of PI3KC2gamma(h) at 1.0 µM in the Eurofins Kinase panel; settings: Compound concentration 1.0 uM
[7] = target: Tyrosine-protein kinase Lck (Homo sapiens) (UniProt P06239); experiment: activity of Lck(h) activated at 1.0 µM in the Eurofins Kinase panel; settings: Compound concentration 1.0 uM
Chain of Tyrosine-protein kinase Lck (Homo sapiens) (P06239 2-509 limits assumed): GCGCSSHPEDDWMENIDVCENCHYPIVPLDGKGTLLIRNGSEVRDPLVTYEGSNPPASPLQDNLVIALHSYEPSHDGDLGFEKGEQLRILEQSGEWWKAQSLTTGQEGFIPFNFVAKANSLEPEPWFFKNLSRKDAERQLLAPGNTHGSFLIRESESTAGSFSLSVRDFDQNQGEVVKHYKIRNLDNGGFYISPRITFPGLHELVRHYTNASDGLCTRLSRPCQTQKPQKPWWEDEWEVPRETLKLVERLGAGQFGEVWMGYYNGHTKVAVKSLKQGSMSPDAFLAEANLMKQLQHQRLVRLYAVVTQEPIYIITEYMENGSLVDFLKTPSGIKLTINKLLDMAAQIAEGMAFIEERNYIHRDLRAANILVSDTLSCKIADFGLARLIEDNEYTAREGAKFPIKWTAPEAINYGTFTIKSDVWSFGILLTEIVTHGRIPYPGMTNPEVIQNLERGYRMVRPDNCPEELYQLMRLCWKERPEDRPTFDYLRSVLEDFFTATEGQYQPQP

[8] = target: cAMP-dependent protein kinase catalytic subunit beta (Homo sapiens) (UniProt P22694); experiment: activity of PKACbeta(h) at 1.0 µM in the Eurofins Kinase panel; settings: Compound concentration 1.0 uM
Aurora kinase B [9] = target: T1, Aurora kinase B (Homo sapiens, UniProt Q96GD4); experiment: activity of Aurora-B(h) at 1.0 µM in the Eurofins Kinase panel; settings: Compound concentration 1.0 uM
T1 sequence (Q96GD4 whole entry): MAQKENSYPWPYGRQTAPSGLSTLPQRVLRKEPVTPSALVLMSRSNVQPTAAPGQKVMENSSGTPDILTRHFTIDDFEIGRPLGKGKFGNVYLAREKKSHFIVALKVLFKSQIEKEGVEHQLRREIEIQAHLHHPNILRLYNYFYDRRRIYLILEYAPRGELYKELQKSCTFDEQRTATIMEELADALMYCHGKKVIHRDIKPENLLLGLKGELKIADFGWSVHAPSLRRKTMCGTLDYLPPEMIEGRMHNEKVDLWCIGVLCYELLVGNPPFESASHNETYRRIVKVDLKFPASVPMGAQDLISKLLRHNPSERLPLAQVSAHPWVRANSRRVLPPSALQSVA

[10] = target: MAP/microtubule affinity-regulating kinase 3 (Homo sapiens) (UniProt P27448); experiment: activity of MARK3(h) at 1.0 µM in the Eurofins Kinase panel; settings: Compound concentration 1.0 uM
Chain of MAP/microtubule affinity-regulating kinase 3 (Homo sapiens) (P27448 whole entry, looked up): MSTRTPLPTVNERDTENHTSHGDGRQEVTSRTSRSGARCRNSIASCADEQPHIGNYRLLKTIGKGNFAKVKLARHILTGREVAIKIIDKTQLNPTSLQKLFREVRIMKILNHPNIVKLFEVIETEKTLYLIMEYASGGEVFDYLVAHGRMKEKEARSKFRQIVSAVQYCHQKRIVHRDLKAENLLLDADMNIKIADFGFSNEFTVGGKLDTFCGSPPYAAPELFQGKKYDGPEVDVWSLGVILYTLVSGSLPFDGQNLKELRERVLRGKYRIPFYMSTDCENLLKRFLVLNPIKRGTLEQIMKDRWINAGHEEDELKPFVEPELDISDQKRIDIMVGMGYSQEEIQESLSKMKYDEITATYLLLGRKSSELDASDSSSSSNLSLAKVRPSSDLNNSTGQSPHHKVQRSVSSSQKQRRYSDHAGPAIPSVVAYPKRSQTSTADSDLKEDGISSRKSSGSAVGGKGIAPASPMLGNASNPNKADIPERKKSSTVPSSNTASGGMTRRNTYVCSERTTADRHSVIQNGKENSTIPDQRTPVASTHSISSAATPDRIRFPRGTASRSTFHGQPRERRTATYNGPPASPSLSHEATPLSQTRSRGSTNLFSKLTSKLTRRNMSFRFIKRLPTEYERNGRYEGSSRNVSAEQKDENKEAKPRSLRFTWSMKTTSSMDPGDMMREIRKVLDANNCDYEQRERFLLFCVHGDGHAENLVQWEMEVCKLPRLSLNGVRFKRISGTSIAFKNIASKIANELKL

[11] = target: Serine/threonine-protein kinase 10 (Homo sapiens) (UniProt O94804); experiment: activity of LOK(h) at 1.0 µM in the Eurofins Kinase panel; settings: Compound concentration 1.0 uM
[12] = target: Casein kinase I isoform delta (Homo sapiens) (UniProt P48730); experiment: activity of CK1delta(h) at 1.0 µM in the Eurofins Kinase panel; settings: Compound concentration 1.0 uM
[13] = target: Tyrosine-protein kinase Fer (Homo sapiens) (UniProt P16591); experiment: activity of Fer(h) at 1.0 µM in the Eurofins Kinase panel; settings: Compound concentration 1.0 uM
Chain of Tyrosine-protein kinase Fer (Homo sapiens) (P16591 whole entry, looked up): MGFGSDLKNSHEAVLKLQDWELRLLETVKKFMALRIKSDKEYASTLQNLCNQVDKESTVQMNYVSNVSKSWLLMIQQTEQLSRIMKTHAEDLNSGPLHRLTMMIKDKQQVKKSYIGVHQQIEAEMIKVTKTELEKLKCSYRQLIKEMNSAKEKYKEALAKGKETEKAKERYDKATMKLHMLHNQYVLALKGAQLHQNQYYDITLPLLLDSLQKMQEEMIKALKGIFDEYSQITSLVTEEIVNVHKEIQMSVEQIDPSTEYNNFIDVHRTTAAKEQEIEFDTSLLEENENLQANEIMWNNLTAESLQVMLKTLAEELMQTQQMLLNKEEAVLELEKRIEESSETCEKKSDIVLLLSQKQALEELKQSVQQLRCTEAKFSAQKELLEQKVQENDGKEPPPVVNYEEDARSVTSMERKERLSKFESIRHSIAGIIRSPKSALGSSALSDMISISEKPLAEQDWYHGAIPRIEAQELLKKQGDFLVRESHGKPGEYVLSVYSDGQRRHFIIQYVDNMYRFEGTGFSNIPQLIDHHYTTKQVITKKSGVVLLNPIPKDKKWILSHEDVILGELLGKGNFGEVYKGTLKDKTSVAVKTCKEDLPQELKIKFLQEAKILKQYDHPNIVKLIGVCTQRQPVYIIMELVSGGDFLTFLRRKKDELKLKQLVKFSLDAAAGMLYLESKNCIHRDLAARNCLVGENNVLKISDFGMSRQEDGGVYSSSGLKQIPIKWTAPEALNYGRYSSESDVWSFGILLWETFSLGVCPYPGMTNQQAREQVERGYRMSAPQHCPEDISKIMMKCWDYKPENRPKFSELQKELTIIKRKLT

[14] = target: Mitogen-activated protein kinase kinase kinase kinase 5 (Homo sapiens) (UniProt Q9Y4K4); experiment: activity of MAP4K5(h) at 1.0 µM in the Eurofins Kinase panel; settings: Compound concentration 1.0 uM
Chain of Mitogen-activated protein kinase kinase kinase kinase 5 (Homo sapiens) (Q9Y4K4 whole entry, looked up): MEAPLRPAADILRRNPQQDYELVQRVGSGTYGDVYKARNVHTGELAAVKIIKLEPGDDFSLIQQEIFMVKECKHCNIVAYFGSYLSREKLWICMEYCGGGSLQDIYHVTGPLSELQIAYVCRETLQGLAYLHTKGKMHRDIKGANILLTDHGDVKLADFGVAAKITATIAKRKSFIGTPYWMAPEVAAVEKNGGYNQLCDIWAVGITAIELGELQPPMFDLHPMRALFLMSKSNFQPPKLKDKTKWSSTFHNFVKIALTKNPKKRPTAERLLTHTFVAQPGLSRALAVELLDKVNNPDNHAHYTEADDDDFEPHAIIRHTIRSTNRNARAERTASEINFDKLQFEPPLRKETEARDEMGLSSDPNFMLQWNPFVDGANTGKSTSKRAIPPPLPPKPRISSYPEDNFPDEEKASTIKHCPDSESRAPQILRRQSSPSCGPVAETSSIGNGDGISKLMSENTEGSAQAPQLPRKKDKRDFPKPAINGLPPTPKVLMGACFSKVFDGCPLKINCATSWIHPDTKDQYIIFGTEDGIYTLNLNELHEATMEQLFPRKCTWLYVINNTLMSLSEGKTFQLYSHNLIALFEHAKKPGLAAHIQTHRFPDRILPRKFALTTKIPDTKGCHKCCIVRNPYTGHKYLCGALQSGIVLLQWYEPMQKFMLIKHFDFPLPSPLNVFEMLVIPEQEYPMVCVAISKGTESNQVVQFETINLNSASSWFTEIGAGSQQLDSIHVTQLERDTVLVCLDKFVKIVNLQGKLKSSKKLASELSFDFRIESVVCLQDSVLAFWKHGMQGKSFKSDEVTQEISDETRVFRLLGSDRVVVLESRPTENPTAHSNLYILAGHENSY

[15] = target: cAMP-dependent protein kinase catalytic subunit PRKX (Homo sapiens) (UniProt P51817); experiment: activity of PrKX(h) at 1.0 µM in the Eurofins Kinase panel; settings: Compound concentration 1.0 uM
[16] = target: Tyrosine-protein kinase Lck (Homo sapiens) (UniProt P06239); experiment: activity of Lck(h) at 1.0 µM in the Eurofins Kinase panel; settings: Compound concentration 1.0 uM
[17] = target: Death-associated protein kinase 3 (Homo sapiens) (UniProt O43293); experiment: activity of ZIPK(h) at 1.0 µM in the Eurofins Kinase panel; settings: Compound concentration 1.0 uM
[18] = target: Aurora kinase C (Homo sapiens) (UniProt Q9UQB9); experiment: activity of Aurora-C(h) at 1.0 µM in the Eurofins Kinase panel; settings: Compound concentration 1.0 uM
[19] = target: PI3-kinase p110-alpha/p85-alpha (Homo sapiens) (UniProt P27986+P42336); experiment: activity of PI3 Kinase (p110alpha/p85alpha)(h) at 1.0 µM in the Eurofins Kinase panel; assay type: protein-complex assay; settings: Compound concentration 1.0 uM
[20] = target: Serine/threonine-protein kinase A-Raf (Homo sapiens) (UniProt P10398); experiment: activity of A-Raf(h) at 1.0 µM in the Eurofins Kinase panel; settings: Compound concentration 1.0 uM
Aurora kinase A = Aurora kinase A (Homo sapiens, UniProt O14965); experiment: Promega NanoBRET (AURKA)
[21] = target: Mitogen-activated protein kinase 8 (Homo sapiens) (UniProt P45983); experiment: activity of JNK1alpha1(h) at 1.0 µM in the Eurofins Kinase panel; settings: Compound concentration 1.0 uM
[22] = target: MAPK/MAK/MRK overlapping kinase (Homo sapiens) (UniProt Q9UQ07); experiment: activity of MOK(h) at 1.0 µM in the Eurofins Kinase panel; settings: Compound concentration 1.0 uM
[23] = target: Serine/threonine-protein kinase 25 (Homo sapiens) (UniProt O00506); experiment: activity of STK25(h) at 1.0 µM in the Eurofins Kinase panel; settings: Compound concentration 1.0 uM
[24] = target: Serine/threonine-protein kinase ULK1 (Homo sapiens) (UniProt O75385); experiment: activity of ULK1(h) at 1.0 µM in the Eurofins Kinase panel; settings: Compound concentration 1.0 uM
[25] = target: Ribosomal protein S6 kinase alpha-3 (Homo sapiens) (UniProt P51812); experiment: activity of Rsk2(h) at 1.0 µM in the Eurofins Kinase panel; settings: Compound concentration 1.0 uM
[26] = target: Serine/threonine-protein kinase Nek3 (Homo sapiens) (UniProt P51956); experiment: activity of NEK3(h) at 1.0 µM in the Eurofins Kinase panel; settings: Compound concentration 1.0 uM
Chain of Serine/threonine-protein kinase Nek3 (Homo sapiens) (P51956 whole entry): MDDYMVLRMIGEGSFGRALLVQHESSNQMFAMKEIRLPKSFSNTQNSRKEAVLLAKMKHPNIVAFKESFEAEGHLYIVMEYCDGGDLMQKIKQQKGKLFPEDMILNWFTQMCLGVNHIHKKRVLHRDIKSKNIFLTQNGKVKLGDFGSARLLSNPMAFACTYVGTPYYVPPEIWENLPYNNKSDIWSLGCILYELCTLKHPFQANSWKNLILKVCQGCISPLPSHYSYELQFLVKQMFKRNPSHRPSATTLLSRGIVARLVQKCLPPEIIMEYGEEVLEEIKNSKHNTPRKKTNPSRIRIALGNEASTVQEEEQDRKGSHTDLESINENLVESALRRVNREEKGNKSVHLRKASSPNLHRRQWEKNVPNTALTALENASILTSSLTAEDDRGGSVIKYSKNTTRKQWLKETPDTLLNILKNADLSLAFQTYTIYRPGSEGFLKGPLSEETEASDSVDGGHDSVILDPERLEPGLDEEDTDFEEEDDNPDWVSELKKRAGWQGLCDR

[27] = target: Insulin receptor-related protein (Homo sapiens) (UniProt P14616); experiment: activity of IRR(h) at 1.0 µM in the Eurofins Kinase panel; settings: Compound concentration 1.0 uM
[28] = target: Tyrosine-protein kinase HCK (Homo sapiens) (UniProt P08631); experiment: activity of Hck(h) activated at 1.0 µM in the Eurofins Kinase panel; settings: Compound concentration 1.0 uM
[29] = target: Serine/threonine-protein kinase 16 (Homo sapiens) (UniProt O75716); experiment: activity of STK16(h) at 1.0 µM in the Eurofins Kinase panel; settings: Compound concentration 1.0 uM
[30] = target: Serine/threonine-protein kinase 26 (Homo sapiens) (UniProt Q9P289); experiment: activity of MST4(h) at 1.0 µM in the Eurofins Kinase panel; settings: Compound concentration 1.0 uM
Aurora kinase B [31] = target: T1, Aurora kinase B; experiment: Promega NanoBRET (AURKB)
[32] = target: Cyclin-dependent kinase-like 1 (Homo sapiens) (UniProt Q00532); experiment: activity of CDKL1(h) at 1.0 µM in the Eurofins Kinase panel; settings: Compound concentration 1.0 uM
Chain of Cyclin-dependent kinase-like 1 (Homo sapiens) (Q00532 whole entry, canonical isoform): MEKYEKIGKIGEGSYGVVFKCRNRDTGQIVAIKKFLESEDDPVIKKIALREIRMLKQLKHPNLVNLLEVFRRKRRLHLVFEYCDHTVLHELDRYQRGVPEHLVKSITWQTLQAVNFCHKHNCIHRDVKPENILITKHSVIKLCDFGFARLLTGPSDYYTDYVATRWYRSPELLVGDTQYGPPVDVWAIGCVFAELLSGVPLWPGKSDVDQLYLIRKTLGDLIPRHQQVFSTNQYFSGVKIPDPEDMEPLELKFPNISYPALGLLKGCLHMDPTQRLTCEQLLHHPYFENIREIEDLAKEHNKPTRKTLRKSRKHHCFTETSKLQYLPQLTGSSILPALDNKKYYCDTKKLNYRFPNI

[33] = target: Casein kinase I isoform alpha (Homo sapiens) (UniProt P48729); experiment: activity of CK1alpha(h) at 1.0 µM in the Eurofins Kinase panel; settings: Compound concentration 1.0 uM
Chain of Casein kinase I isoform alpha (Homo sapiens) (P48729 2-337 limits assumed): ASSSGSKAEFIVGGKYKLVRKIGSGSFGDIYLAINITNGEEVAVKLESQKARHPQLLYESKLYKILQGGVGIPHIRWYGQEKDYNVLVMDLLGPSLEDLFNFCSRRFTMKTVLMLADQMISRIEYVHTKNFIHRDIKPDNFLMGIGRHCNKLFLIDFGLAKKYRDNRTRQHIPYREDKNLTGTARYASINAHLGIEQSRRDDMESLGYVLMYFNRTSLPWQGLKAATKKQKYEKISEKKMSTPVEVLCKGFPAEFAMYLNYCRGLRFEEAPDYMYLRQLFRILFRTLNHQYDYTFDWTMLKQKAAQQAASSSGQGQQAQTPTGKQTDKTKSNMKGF

[34] = target: Casein kinase II subunit alpha' (Homo sapiens) (UniProt P19784); experiment: activity of CK2alpha2(h) at 1.0 µM in the Eurofins Kinase panel; settings: Compound concentration 1.0 uM
[35] = target: BDNF/NT-3 growth factors receptor (Homo sapiens) (UniProt Q16620); experiment: activity of TrkB(h) at 1.0 µM in the Eurofins Kinase panel; settings: Compound concentration 1.0 uM
[36] = target: Serine/threonine-protein kinase B-raf (Homo sapiens) (UniProt P15056); experiment: activity of B-Raf(h) at 1.0 µM in the Eurofins Kinase panel; settings: Compound concentration 1.0 uM
[37] = target: Platelet-derived growth factor receptor beta (Homo sapiens) (UniProt P09619); experiment: activity of PDGFRbeta(h) at 1.0 µM in the Eurofins Kinase panel; settings: Compound concentration 1.0 uM
[38] = target: Calcium/calmodulin-dependent protein kinase type 1D (Homo sapiens) (UniProt Q8IU85); experiment: activity of CaMKIdelta(h) at 1.0 µM in the Eurofins Kinase panel; settings: Compound concentration 1.0 uM
[39] = target: MAP kinase-activated protein kinase 5 (Homo sapiens) (UniProt Q8IW41); experiment: activity of PRAK(h) at 1.0 µM in the Eurofins Kinase panel; settings: Compound concentration 1.0 uM
Chain of MAP kinase-activated protein kinase 5 (Homo sapiens) (Q8IW41 whole entry): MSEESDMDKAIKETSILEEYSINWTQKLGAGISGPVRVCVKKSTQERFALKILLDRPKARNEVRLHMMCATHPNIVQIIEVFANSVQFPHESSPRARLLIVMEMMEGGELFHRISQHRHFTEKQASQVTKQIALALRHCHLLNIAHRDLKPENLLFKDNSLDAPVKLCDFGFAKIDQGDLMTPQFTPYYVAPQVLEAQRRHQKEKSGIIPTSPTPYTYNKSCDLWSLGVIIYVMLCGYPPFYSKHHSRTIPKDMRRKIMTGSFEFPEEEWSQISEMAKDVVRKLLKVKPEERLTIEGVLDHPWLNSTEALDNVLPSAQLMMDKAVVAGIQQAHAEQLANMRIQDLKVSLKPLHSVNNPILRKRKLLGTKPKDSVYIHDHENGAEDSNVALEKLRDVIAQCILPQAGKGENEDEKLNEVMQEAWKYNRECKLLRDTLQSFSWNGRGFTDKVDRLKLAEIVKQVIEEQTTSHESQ

## Cc1cc2c(-c3ccc(NC(=O)[C@H](N)CC(C)(C)C)cc3C)ccnc2[nH]1
[1]
  activity: 72%
[2]
  activity: 91%
[3]
  activity: 112%
[4]
  activity: 105%
[5]
  activity: 88%
[6]
  activity: 103%
[7]
  activity: 119%
[8]
  activity: 121%
Aurora kinase B [9]
  activity: 109%
[10]
  activity: 90%
[11]
  activity: 96%
[12]
  activity: 96%
[13]
  activity: 103%
[14]
  activity: 92%
[15]
  activity: 101%
[16]
  activity: 86%
[17]
  activity: 94%
[18]
  activity: 94%
[19]
  activity: 96%
[20]
  activity: 97%
Aurora kinase A
  IC50: > 10 µM (not active)
[21]
  activity: 110%
[22]
  activity: 90%
[23]
  activity: 92%
[24]
  activity: 95%
[25]
  activity: 88%
[26]
  activity: 110%
[27]
  activity: 110%
[28]
  activity: 111%
[29]
  activity: 94%
[30]
  activity: 106%
Aurora kinase B [31]
  IC50: > 10 µM (not active)
[32]
  activity: 99%
[33]
  activity: 97%
[34]
  activity: 115%
[35]
  activity: 84%
[36]
  activity: 110%
[37]
  activity: 105%
[38]
  activity: 89%
[39]
  activity: 107%
